Among the data in ChEMBL document CHEMBL5108019, “Discovery of a novel Pleuromutilin derivative as anti-IPF lead compound via high-throughput assay” (Eur J Med Chem, 2022) are MIC and Activity values, retold here.

In brackets after ≈: the same amount, converted by molar mass. Activity calls are given as the source filed them. No cut-off for these calls is given here. Some results are limits rather than exact numbers.

For one test, the system named is Bacillus subtilis. Kind of test: Antibacterial activity against Bacillus subtilis assessed as bacterial growth inhibition incubated for 24 hrs. The class given is functional.
The subject of another test is Escherichia coli. Kind of test: Antibacterial activity against Escherichia coli assessed as bacterial growth inhibition incubated for 24 hrs. The class given is functional.
Test [1] deals with Transforming growth factor beta-1 proprotein/Mothers against decapentaplegic homolog 3 (Mus musculus) (UniProt P04202+Q8BUN5). Nature of the test: Inhibition of TGF-beta1/Smad3 signalling in TGF-beta1 treated mouse NIH3T3 cells transfected with (CAGA)12-Lux reporter gene assessed as suppressive ratio at 10 uM incubated for 18 hrs by luciferase based analysis relative to control. The format is cell-based. Details: scale not given: the % may be the effect or the level left. (In a reporter assay the amount or activity of a reporter protein is the signal.)
Transforming growth factor beta-1 proprotein/Mothers against decapentaplegic homolog 3 (Mus musculus), sequence (P04202 279-390 limits assumed): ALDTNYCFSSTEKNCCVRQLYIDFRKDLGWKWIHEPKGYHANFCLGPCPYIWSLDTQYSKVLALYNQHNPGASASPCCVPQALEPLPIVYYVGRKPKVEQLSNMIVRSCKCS
Transforming growth factor beta-1 proprotein/Mothers against decapentaplegic homolog 3 (Mus musculus), sequence (Q8BUN5 2-425 partner limits assumed): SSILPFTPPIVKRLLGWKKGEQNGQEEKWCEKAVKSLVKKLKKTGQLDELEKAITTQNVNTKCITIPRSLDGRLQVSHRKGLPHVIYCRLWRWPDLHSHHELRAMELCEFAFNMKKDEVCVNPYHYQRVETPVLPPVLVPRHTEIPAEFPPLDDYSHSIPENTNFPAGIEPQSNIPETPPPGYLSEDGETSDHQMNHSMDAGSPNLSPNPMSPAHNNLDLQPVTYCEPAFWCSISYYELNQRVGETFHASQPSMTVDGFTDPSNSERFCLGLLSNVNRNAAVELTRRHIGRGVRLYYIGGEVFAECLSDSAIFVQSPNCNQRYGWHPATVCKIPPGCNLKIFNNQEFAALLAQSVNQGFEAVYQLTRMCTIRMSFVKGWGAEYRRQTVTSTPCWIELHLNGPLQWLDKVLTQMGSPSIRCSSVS

The subject of a further test is Staphylococcus aureus. Kind of test: Antibacterial activity against Staphylococcus aureus assessed as bacterial growth inhibition incubated for 24 hrs. The format is functional.
Test [2] has as its system Mus musculus. Nature of the test: Antifibrotic activity against BLM-induced pulmonary fibrosis in C57BL/6 mouse model assessed as improvement in pulmonary alveolar structure damage at 100 mg/kg, po administered once daily starting from day 7 post BLM treatment and measured on day 14 by H and E staining based analysis. The format is functional, organism-based. The following applies: time 14.0 day.

Test [3] concerns Mus musculus. Nature of the test: Antifibrotic activity against BLM-induced pulmonary fibrosis in C57BL/6 mouse model assessed as reduction in fibrosis region at 100 mg/kg, po administered once daily starting from day 7 post BLM treatment and measured on day 14 by hematoxylin-eosin and Masson trichrome staining based analysis relative to control. The following applies: time 14.0 day. The format is functional, organism-based.

The MIC is the lowest concentration that inhibits growth of the organism. As for `C=C[C@]1(C)C[C@@H](O)[C@]2(C)[C@H](C)CC[C@]3(C/C(=C\c4ccc(C(=O)N5CCN(C)CC5)cc4)C(=O)[C@H]32)[C@@H](C)[C@@H]1O`, the MIC in the test on Bacillus subtilis, in the test with Escherichia coli and in the test with Staphylococcus aureus was over 1000 µg/mL each time. The Activity in test [1] turned out to be 40.3%.
Turning to `C=C[C@]1(C)C[C@@H](O)[C@]2(C)[C@H](C)CC[C@]3(C/C(=C\c4ccccc4)C(=O)[C@H]32)[C@@H](C)[C@@H]1O`, the Activity in test [1] turned out to be 15.2%.
Take `C=C[C@]1(C)C[C@@H](O)[C@]2(C)[C@H](C)CC[C@]3(C/C(=C\c4ccc(C(=O)N5CCCCC5)cc4)C(=O)[C@H]32)[C@@H](C)[C@@H]1O`: the Activity in test [1] is -16.7%.
The same measure, in the same setting: as for `C=C[C@]1(C)C[C@@H](O)[C@]2(C)[C@H](C)CC[C@]3(C/C(=C\c4cccc(C)c4)C(=O)[C@H]32)[C@@H](C)[C@@H]1O`, the figure is 0.99%; as for `C=C[C@]1(C)C[C@@H](O)[C@]2(C)[C@H](C)CC[C@]3(C/C(=C\c4ccc(C(=O)NC5CCN(C)CC5)cc4)C(=O)[C@H]32)[C@@H](C)[C@@H]1O`, -9.93%.
On the same count and under the same terms, the result for `C=C[C@]1(C)C[C@@H](O)[C@]2(C)[C@H](C)CC[C@]3(C/C(=C\c4cccc(C(=O)O)c4)C(=O)[C@H]32)[C@@H](C)[C@@H]1O` reads -0.41%.
Regarding `C=C[C@]1(C)C[C@@H](O)[C@]2(C)[C@H](C)CC[C@]3(C/C(=C\c4ccc(C(=O)N5CCOCC5)cc4)C(=O)[C@H]32)[C@@H](C)[C@@H]1O`, in test [1], the Activity is -19.9%.
Still for that read-out and setting: the result for `C=C[C@]1(C)C[C@@H](O)[C@]2(C)[C@H](C)CC[C@]3(C/C(=C\c4ccc(C(=O)N(C)C)cc4)C(=O)[C@H]32)[C@@H](C)[C@@H]1O` reads -20.3%; that for `C=C[C@]1(C)C[C@@H](O)[C@]2(C)[C@H](C)CC[C@]3(C/C(=C\c4ccc5ccccc5c4)C(=O)[C@H]32)[C@@H](C)[C@@H]1O`, 26.5%.
As to `C=C[C@]1(C)C[C@@H](O)[C@]2(C)[C@H](C)CC[C@]3(C/C(=C\c4ccc(C(=O)O)cc4)C(=O)[C@H]32)[C@@H](C)[C@@H]1O`, the MIC with Bacillus subtilis, with Escherichia coli and in the test on Staphylococcus aureus was over 1000 µg/mL in each case. Further, the Activity in test [1] is 41.4%.
With `C=C[C@]1(C)C[C@@H](O)[C@]2(C)[C@H](C)CC[C@]3(C/C(=C\c4ccco4)C(=O)[C@H]32)[C@@H](C)[C@@H]1O`, the Activity in test [1] turned out to be 31%.
With `C=C[C@]1(C)C[C@@H](O)[C@]2(C)[C@H](C)CC[C@]3(C/C(=C\c4ccccc4C)C(=O)[C@H]32)[C@@H](C)[C@@H]1O`, the Activity in test [1] came to 38.8%.
On the same count and under the same terms, the result for `C=C[C@]1(C)C[C@@H](O)[C@]2(C)[C@H](C)CC[C@]3(C/C(=C\c4ccc(C(F)(F)F)cc4)C(=O)[C@H]32)[C@@H](C)[C@@H]1O` reads 35.5%; that for `C=C[C@]1(C)C[C@@H](O)[C@]2(C)[C@H](C)CC[C@]3(C/C(=C\C(C)(C)C)C(=O)[C@H]32)[C@@H](C)[C@@H]1O`, 6.58%; that for `C=C[C@]1(C)C[C@@H](O)[C@]2(C)[C@H](C)CC[C@]3(C/C(=C\CCCC)C(=O)[C@H]32)[C@@H](C)[C@@H]1O`, 16.9%.
Regarding `C=C[C@]1(C)C[C@@H](OC(=O)CO)[C@]2(C)[C@H](C)CC[C@]3(CCC(=O)[C@H]32)[C@@H](C)[C@@H]1O` [PLEUROMULIN], the MIC in the test on Bacillus subtilis is 100 µg/mL (≈ 264 µM); in the test with Escherichia coli it was 10 µg/mL (≈ 26.4 µM); in the test with Staphylococcus aureus, 5 µg/mL (≈ 13.2 µM).
Regarding `C=C[C@]1(C)C[C@@H](O)[C@]2(C)[C@H](C)CC[C@]3(C/C(=C\C4CC4)C(=O)[C@H]32)[C@@H](C)[C@@H]1O`, in test [1], the Activity was -10.8%.
Still for that read-out and setting: as for `C=C[C@]1(C)C[C@@H](O)[C@]2(C)[C@H](C)CC[C@]3(C/C(=C\c4ccc(C(C)(C)C)cc4)C(=O)[C@H]32)[C@@H](C)[C@@H]1O`, the figure is 13.3%.
With `C=C[C@]1(C)C[C@@H](O)[C@]2(C)[C@H](C)CC[C@]3(C/C(=C\c4cccc(C(=O)NC5CCCCC5)c4)C(=O)[C@H]32)[C@@H](C)[C@@H]1O`, the Activity in test [1] is -3.36%.
As for `NC(=O)c1ccc(-c2nc(-c3ccccn3)c(-c3ccc4c(c3)OCO4)[nH]2)cc1`, the Activity in test [1] amounted to 98.9%.
On to `C=C[C@]1(C)C[C@@H](O)[C@]2(C)[C@H](C)CC[C@]3(C/C(=C\c4cccc(C(=O)N5CCN(C)CC5)c4)C(=O)[C@H]32)[C@@H](C)[C@@H]1O`, for which the Activity in test [1] turned out to be 7.27%.
Still for that read-out and setting: the result for `C=C[C@]1(C)C[C@@H](O)[C@]2(C)[C@H](C)CC[C@]3(C/C(=C\C4CCCCC4)C(=O)[C@H]32)[C@@H](C)[C@@H]1O` reads 32.4%; that for `C=C[C@]1(C)C[C@@H](O)[C@]2(C)[C@H](C)CC[C@]3(C/C(=C\c4ccc(C(=O)Nc5ccccc5)cc4)C(=O)[C@H]32)[C@@H](C)[C@@H]1O`, -27.7%; that for `C=C[C@]1(C)C[C@@H](O)[C@]2(C)[C@H](C)CC[C@]3(C/C(=C\c4ccc(Cl)cc4)C(=O)[C@H]32)[C@@H](C)[C@@H]1O`, 48.9%.
Regarding `Cc1ccc(=O)n(-c2ccccc2)c1`, the result with Mus musculus [2] and in the test on Mus musculus [3] was Active.
Regarding `C=C[C@]1(C)C[C@@H](O)[C@]2(C)[C@H](C)CC[C@]3(C/C(=C\c4cccnc4)C(=O)[C@H]32)[C@@H](C)[C@@H]1O`, the Activity in test [1] worked out at 0.29%.
On the same count and under the same terms, as for `C=C[C@]1(C)C[C@@H](O)[C@]2(C)[C@H](C)CC[C@]3(C/C(=C\C4CCCC4)C(=O)[C@H]32)[C@@H](C)[C@@H]1O`, the figure is 30.6%; as for `C=C[C@]1(C)C[C@@H](O)[C@]2(C)[C@H](C)CC[C@]3(C/C(=C\CC(C)(C)C)C(=O)[C@H]32)[C@@H](C)[C@@H]1O`, 18.5%; as for `C=C[C@]1(C)C[C@@H](O)[C@]2(C)[C@H](C)CC[C@]3(C/C(=C\c4ccc(SC)cc4)C(=O)[C@H]32)[C@@H](C)[C@@H]1O`, 46%.
Still for that read-out and setting: as for `C=C[C@]1(C)C[C@@H](O)[C@]2(C)[C@H](C)CC[C@]3(C/C(=C\c4c(C)cc(C)cc4C)C(=O)[C@H]32)[C@@H](C)[C@@H]1O`, the figure is 42.5%; as for `C=C[C@]1(C)C[C@@H](O)[C@]2(C)[C@H](C)CC[C@]3(C/C(=C\C=C\c4ccccc4)C(=O)[C@H]32)[C@@H](C)[C@@H]1O`, 34%.
Same read-out and setting: as for `C=C[C@]1(C)C[C@@H](O)[C@]2(C)[C@H](C)CC[C@]3(C/C(=C\c4ccc(C)cc4)C(=O)[C@H]32)[C@@H](C)[C@@H]1O`, the figure is 32.8%; as for `C=C[C@]1(C)C[C@@H](O)[C@]2(C)[C@H](C)CC[C@]3(C/C(=C\c4ncccc4F)C(=O)[C@H]32)[C@@H](C)[C@@H]1O`, 13.5%; as for `C=C[C@]1(C)C[C@@H](O)[C@]2(C)[C@H](C)CC[C@]3(C/C(=C\c4ccc(F)cc4)C(=O)[C@H]32)[C@@H](C)[C@@H]1O`, 35.3%.
Regarding `C=C[C@]1(C)C[C@@H](O)[C@]2(C)[C@H](C)CC[C@]3(C/C(=C\c4ccc(OC)cc4)C(=O)[C@H]32)[C@@H](C)[C@@H]1O`, the Activity in test [1] amounted to 21%.
With `C=C[C@]1(C)C[C@@H](O)[C@]2(C)[C@H](C)CC[C@]3(C/C(=C\CCC)C(=O)[C@H]32)[C@@H](C)[C@@H]1O`, the Activity in test [1] turned out to be 0.45%.
On the same count and under the same terms, the result for `C=C[C@]1(C)C[C@@H](O)[C@]2(C)[C@H](C)CC[C@]3(C/C(=C\c4ccccc4N4CCOCC4)C(=O)[C@H]32)[C@@H](C)[C@@H]1O` reads 20.6%.
